Experimental data published in PMC6614837 (Nucleic Acids Research, 2019).

Legend:
RNase P holoenzyme [1] = biological target: T1, RNase P holoenzyme (Thermotoga maritima, UniProt Q9X1H4); assay: Gel-based activity assay, bipartite pre-tRNA substrate, holoenzyme; format: biochemical, T. maritima; conditions: 100 mM AmOAc, 10 mM MgCl2
T1 construct: GST (cleaved yes); made in house; host or cells: E. coli BL21(DE3)pLysS
T1 sequence (Q9X1H4 1-117): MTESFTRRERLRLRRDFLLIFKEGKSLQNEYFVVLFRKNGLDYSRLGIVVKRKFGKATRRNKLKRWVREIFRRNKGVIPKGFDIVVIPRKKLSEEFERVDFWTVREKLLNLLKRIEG
Protocol: For gel-based activity assays, reactions were prepared as described in the previous section (fluorescence activity assay), incubated for 1–15 min at 37–50°C, then loaded onto a denaturing 7 M urea–20% acrylamide gel in the case of the Mh substrate or 19% acrylamide (40% acrylamide/bisacrylamide 38.5:1.5) for the bipartite pre-tRNA substrate. The activity conditions for the gel reported in Figure 3A, to monitor the cleavage of the holoenzyme and P RNA, were under 100 mM AmOAc and 10 mM MgCl2. The gels (13 × 16 × 0.15 cm) were electrophoresed at 20 V/cm for 2–3 h. UV shadowing or ethidium bromide staining was used to visualize RNA cleavage. Detection of minihelix fluorescence was achieved without staining using a UV lamp with excitation at ∼254 nm.
Figure 3. The inhibitors purpurin and hematein bind to the holoenzyme. (A) Top. […] Bottom. […] (B) The relative affinities of the inhibitors for the P RNA or the holoenzyme differ. Binding sensorgrams obtained by biolayer interferometry (BLI). P RNA or RNase P holoenzyme was immobilized on super streptavidin (SSA) biosensors through a 5′-biotinylated RNA oligonucleotide complementary to a region on the P1 stem of P RNA (see Materials and Methods). […] In contrast, gentian violet binds not only to P RNA but also to the Mh substrate (Supplementary Figure S16). […]

P RNA = assay: Biolayer interferometry binding to immobilized P RNA; set-up: species or system T. maritima; conditions: BLI, P RNA on SSA biosensors via biotinylated oligonucleotide
Protocol: (§1) Real-time binding assays of the holoenzyme, P RNA, P protein, the substrate minihelix and the 5′-leader to individual compounds were performed by biolayer interferometry using an Octet RED96 system (ForteBio). For the holoenzyme or P RNA, a 5′ biotinylated RNA oligonucleotide with the sequence 5′biotin-CAUUCCAGACGAU was immobilized on Super Streptavidin (SSA) biosensors. Then, a modified P RNA or holoenzyme was added. The P RNA modification consisted of a sequence with part of the P1 stem sequence complementary to the biotinylated oligonucleotide (AUCGUCUGGA) (Supplementary Figure S23A). P1 is far from the active site or other regions involved in specific interactions (Supplementary Figure S23B) ([19]). The activity of this construct was indistinguishable from the wild-type holoenzyme. Alternatively, the holoenzyme was immobilized through the His-tagged P protein from T. maritima at 0.05 mg/ml (3.4 μM) on Ni-NTA biosensors. Control biosensors were used to subtract non-specific binding of compounds to the biosensor surface. All assay steps (immobilization, wash, baseline, association, and dissociation) were performed in 20 mM HEPES pH 7.4, 100 mM ammonium acetate, 10 mM MgCl2, 2.5% DMSO. The assays were performed on black bottom 96-well microplates (Greiner Bio-One 655209) in a total volume of 200 μl, at 30°C with orbital shaking at 1000 rpm. Experiments were controlled with the software Data Acquisition 8.2 (ForteBio, Inc.). Kinetic binding parameters were calculated using Data Analysis 8.2 (ForteBio, Inc.). After subtraction of reference biosensors, the binding curves were aligned to the X- and Y-axis and the association-dissociation inter-step curve in order to get a common baseline for the association and dissociation phases.
Figure 3. The inhibitors purpurin and hematein bind to the holoenzyme. (A) Top. […] Bottom. […] (B) The relative affinities of the inhibitors for the P RNA or the holoenzyme differ. Binding sensorgrams obtained by biolayer interferometry (BLI). […]

RNase P holoenzyme [2] = biological target: T1, RNase P holoenzyme; assay: Displacement of pre-tRNA from the holoenzyme (BLI); format: binding, T. maritima; conditions: holoenzyme on Ni-NTA biosensors, compound 0–400 μM, then pre-tRNA
Protocol: as §1
Figure 4. Characterization of the inhibition of T. maritima RNase P by purpurin. (A) Best global fit for inhibition of RNase P in the presence of varying concentrations of fluorescent Mh substrate. […] Symbols represent the mean ± standard error as determined from three independent experiments at each concentration. See also Supplementary Figure S18. […] Binding sensorgrams obtained by biolayer interferometry (BLI). RNase P holoenzyme at 400 nM was immobilized on Ni-NTA. […] Binding sensorgrams obtained by biolayer interferometry (BLI). RNase P holoenzyme was immobilized on Ni-NTA biosensors, incubated with purpurin at varying concentrations (0–400 μM), and then the association and dissociation pre-tRNA was monitored. […] See also Supplementary Figure S17.

[3] = biological target: T2, RNase P holoenzyme from T. maritima (Thermotoga maritima, UniProt Q9X1H4); assay: End-point urea-PAGE RNase P activity assay with canonical pre-tRNA substrate; format: biochemical; conditions: 10% DMSO
T2 construct: made in house
T2 sequence (Q9X1H4 1-117): T1 sequence (Q9X1H4 1-117)
Protocol: Supplementary Figure 11 . End-point urea-PAGE RNase P activity assays using a canonical pre-tRNA substrate are in agreement with the fluorescence inhibition experiments. RNase P holoenzyme from T. maritima is inhibited by the four validated hits, as observed in an 18% urea- PAGE end-point assay. RNase P holoenzyme was incubated in the presence of 10% DMSO (+) or different concentrations of compound for 30 min at 37°C. See also Supplementary Figure […]
Supplementary Figure 12. End-point urea-PAGE RNase P activity assays using a canonical pre-tRNA substrate are in agreement with the fluorescence inhibition experiments using the minihelix substrate. Compound-dependent disappearance of the pre-tRNA substrate, with a […]
biological substrate for the inhibitors (juglone and purpurin). The assays were performed under the following conditions: 66 nM RNase P holoenzyme, in a total volume of 20 µL in activity buffer (33 mM Tris, 66 mM HEPES pH 7.4, 400 mM ammonium acetate, 100 mM MgCl2) were incubated in the presence of 10% DMSO (+) or different concentrations of compound for 30 min at 37° C. Then, pre-tRNA was added to a final concentration of 1.6 µM and the reaction was incubated at 55° C for 25 min before gel loading. […]

| Structure (SMILES) | Inhibition of the holoenzyme reaction (RNase P holoenzyme [1]) | Binding to P RNA (P RNA) | Dose–response displacement of pre-tRNA (RNase P holoenzyme [2]) | Inhibition of pre-tRNA cleavage (urea-PAGE end-point) [3] |
| --- | --- | --- | --- | --- |
| O=C1c2ccccc2C(=O)c2c(O)c(O)cc(O)c21 [Purpurin, 1,2,4-trihydroxyanthraquinone] | inhibit the reaction catalyzed by the RNase P holoenzyme | does not bind to P RNA | displaces bound pre-tRNA in a dose-response behavior and Yes | confirms the inhibition |
| O=C1C=C2CC3(O)COc4c(ccc(O)c4O)C3=C2C=C1O (stereo not drawn) [Hematein, 3,4,6a,10-tetrahydroxy-6a,7-dihydroindeno[2,1-c]chromen-9(6H)-one] | inhibit the reaction catalyzed by the RNase P holoenzyme | binds only slightly to P RNA | No |  |
| O=C1C=CC(=O)c2c(O)cccc21 [Juglone, 5-hydroxy-1,4-naphthoquinone] |  |  | No | confirms the inhibition |
